{
  "source": "patent US20030181436A1",
  "about": "“Treatment for AIDS, HIV, and other related diseases and compounds for use therewith” (priority 2001, published 2003)",
  "type_in_all_cases": "cell-based",
  "key": {"[1]": {"tested_on": "TNFα induced ACH-2 cells (HIV IIIB provirus)", "assay": "ACH-2 latent infection assay, supernatant reverse transcriptase activity", "design": "% VC (percent of virus control): unit not given here", "conditions": "exp 2", "protocol": "(§1) U1 and ACH-2 cells were obtained from the AIDS Research and Reference Reagent Program and maintained under standard culture conditions in RPMI 1640 supplemented with 10% fetal bovine serum (heat inactivated), supplemented with 2 mM […], 100U/ml penicillin and 100 μg/ml, streptomycin. U1 cells were derived from the histocytic leukemia cell line U937, and contain a single integrated copy (HIV IIIB) […] a cytokine and/or phorbol inducible provirus. ACH-2 cells are derived from the A3.01 T lymphoblastic cell line, and contain 2 copies of the HIV IIIB provirus, however only one is cytokine and/or phorbol inducible. Cultures were maintained in such a way as to ensure exponential growth of the populations. At the time of the assay, cells were collected by centrifugation and counted by hemacytometer. If cell viability by Trypan Blue dye exclusion was less than 70% the assay was terminated. The cells were adjusted to 5×10^4 cells/mL and 100 μL, placed in 96 well plates with 100 μL media containing a final concentration of […] TNFα and the test compound. Cultures were incubated for 3 days and supernatants harvested. Compound toxicity was determined by MTS dye reduction. Virus expression was measured by supernatant reverse transcriptasc activity.\nReverse transcriptase activity was measured in cell-free supernatants. Tritiated thymidine triphosphate (NEN) (TTP) was resuspended in distilled H2O at 5 Ci/mL. Poly rA and oligo dT were prepared as a stock solution which was kept at −20° C. The RT reaction buffer was prepared fresh on a daily basis and consists of 125 μL 1.0 M EGTA, 125 μL dH2O, 110 μL 10% SDS, 50 μL 1.0 M Tris (pH 7.4), 50 μL, 1.0 M DTT, and 40 μL 1.0 M MgCl2. These three solutions were mixed together in a ratio of 2 parts TTP, 1 part poly rA:oligo dT, and 1 part reaction buffer. Ten microliters of this reaction mixture was placed in a round bottom microtiter plate and 15 μL of virus containing supernatant was added and mixed. The plate was incubated at 37° C. in a water bath with a solid support to prevent submersion of the plate and incubated for 60 minutes. Following reaction, the reaction volume was spotted onto pieces of DE81 paper, washed 5 times for 5 minutes each in a 5% sodium phosphate buffer, 2 times for 1 minute each in distilled water, 2 times for 1 minute each in 70% ethanol, and then dried. Opti-Fluor O was added to each sample and incorporated radioactivity was quantitated utilizing a Wallac 1450 Microbetaplus liquid scintillation counter."}, "[2]": {"tested_on": "ACH-2 cells", "assay": "ACH-2 assay, compound toxicity by MTS dye reduction", "design": "Y. CC / 9′. CC: unit not given here", "conditions": "exp 2", "protocol": "At assay termination the assay plates were stained with the soluble tetrazolium-based dye MTS (CellTiter® Reagent, Promega) to determined cell viability and quantify compound toxicity. […] At termination of the assay 20 μL of MTS reagent was added per well. The wells were incubated for 4 h at 37° C., 5% CO2. Adhesive plate scalers were used in place of the lids, the sealed plate was inverted several times to mix the soluble formazan product and the plate was read spectrophotometrically at 490 nm with a 650 nm reference wavelength on a Molecular Devices Vmax plate reader.\nas §1"}, "[3]": {"tested_on": "HIV", "assay": "HeLa CD4 LTR β-gal time of addition assay", "conditions": "single round, high M.O.I.", "text": "This time of addition assay measures reproducible events from initial virus binding to the trans activation of the β-galactosidase reporter by newly produced Tat protein. This is a single round of infection assay and is thus “cleaner” and more “precise” than a multi-round time of addition assay. […] Since it is hypothesized that the K and Z compounds work by interfering with virus transcription the later possibility seems more likely. Thus the use of a time of addition assay with PBMCs was utilized."}},
  "data": [
    {"substance": "Potassium Iodiscorbate [Compound K]", "values": [
      {"measurement": "% VC (percent of virus control)", "setting": "[1]; 0.00063 uM", "value": 114.4},
      {"measurement": "RT ACTIVITY (cpm) MEAN", "setting": "[1]; 0.00063 uM", "value": 22470, "unit": "cpm"},
      {"measurement": "% VC (percent of virus control)", "setting": "[1]; 0.002 uM", "value": 98.0},
      {"measurement": "RT ACTIVITY (cpm) MEAN", "setting": "[1]; 0.002 uM", "value": 19246, "unit": "cpm"},
      {"measurement": "% VC (percent of virus control)", "setting": "[1]; 0.00625 uM", "value": 105.2},
      {"measurement": "RT ACTIVITY (cpm) MEAN", "setting": "[1]; 0.00625 uM", "value": 20672, "unit": "cpm"},
      {"measurement": "% VC (percent of virus control)", "setting": "[1]; 0.02 uM", "value": 125.7},
      {"measurement": "RT ACTIVITY (cpm) MEAN", "setting": "[1]; 0.02 uM", "value": 24682, "unit": "cpm"},
      {"measurement": "% VC (percent of virus control)", "setting": "[1]; 0.0625 uM", "value": 119.1},
      {"measurement": "RT ACTIVITY (cpm) MEAN", "setting": "[1]; 0.0625 uM", "value": 23403, "unit": "cpm"},
      {"measurement": "% VC (percent of virus control)", "setting": "[1]; 0.2 uM", "value": 115.0},
      {"measurement": "RT ACTIVITY (cpm) MEAN", "setting": "[1]; 0.2 uM", "value": 22593, "unit": "cpm"},
      {"measurement": "% VC (percent of virus control)", "setting": "[1]; 0.625 uM", "value": 97.7},
      {"measurement": "RT ACTIVITY (cpm) MEAN", "setting": "[1]; 0.625 uM", "value": 19189, "unit": "cpm"},
      {"measurement": "% VC (percent of virus control)", "setting": "[1]; 2 uM", "value": 93.6},
      {"measurement": "RT ACTIVITY (cpm) MEAN", "setting": "[1]; 2 uM", "value": 18381, "unit": "cpm"},
      {"measurement": "% VC (percent of virus control)", "setting": "[1]; 6.25 uM", "value": 32.7},
      {"measurement": "RT ACTIVITY (cpm) MEAN", "setting": "[1]; 6.25 uM", "value": 6432, "unit": "cpm"},
      {"measurement": "% VC (percent of virus control)", "setting": "[1]; 20 uM", "value": 15.3},
      {"measurement": "RT ACTIVITY (cpm) MEAN", "setting": "[1]; 20 uM", "value": 3011, "unit": "cpm"},
      {"measurement": "% VC (percent of virus control)", "setting": "[1]; 62.5 uM", "value": 0.58},
      {"measurement": "RT ACTIVITY (cpm) MEAN", "setting": "[1]; 62.5 uM", "value": 113, "unit": "cpm"},
      {"measurement": "% VC (percent of virus control)", "setting": "[1]; 200 uM", "value": 0.55},
      {"measurement": "RT ACTIVITY (cpm) MEAN", "setting": "[1]; 200 uM", "value": 108, "unit": "cpm"},
      {"measurement": "TOXICITY VALUES (MTS) MEAN", "setting": "[2]; 0.00063 uM", "value": 0.990, "unit": "O. D."},
      {"measurement": "Y. CC", "setting": "[2]; 0.00063 uM", "value": 78.2},
      {"measurement": "TOXICITY VALUES (MTS) MEAN", "setting": "[2]; 0.002 uM", "value": 1.004, "unit": "O. D."},
      {"measurement": "Y. CC", "setting": "[2]; 0.002 uM", "value": 79.3},
      {"measurement": "TOXICITY VALUES (MTS) MEAN", "setting": "[2]; 0.00625 uM", "value": 1.000, "unit": "O. D."},
      {"measurement": "Y. CC", "setting": "[2]; 0.00625 uM", "value": 78.9},
      {"measurement": "TOXICITY VALUES (MTS) MEAN", "setting": "[2]; 0.02 uM", "value": 0.943, "unit": "O. D."},
      {"measurement": "Y. CC", "setting": "[2]; 0.02 uM", "value": 74.4},
      {"measurement": "TOXICITY VALUES (MTS) MEAN", "setting": "[2]; 0.0625 uM", "value": 0.891, "unit": "O. D."},
      {"measurement": "Y. CC", "setting": "[2]; 0.0625 uM", "value": 70.3},
      {"measurement": "TOXICITY VALUES (MTS) MEAN", "setting": "[2]; 0.2 uM", "value": 0.830, "unit": "O. D."},
      {"measurement": "Y. CC", "setting": "[2]; 0.2 uM", "value": 65.6},
      {"measurement": "TOXICITY VALUES (MTS) MEAN", "setting": "[2]; 0.625 uM", "value": 0.826, "unit": "O. D."},
      {"measurement": "Y. CC", "setting": "[2]; 0.625 uM", "value": 65.2},
      {"measurement": "TOXICITY VALUES (MTS) MEAN", "setting": "[2]; 2 uM", "value": 0.694, "unit": "O. D."},
      {"measurement": "Y. CC", "setting": "[2]; 2 uM", "value": 54.8},
      {"measurement": "TOXICITY VALUES (MTS) MEAN", "setting": "[2]; 6.25 uM", "value": 0.208, "unit": "O. D."},
      {"measurement": "Y. CC", "setting": "[2]; 6.25 uM", "value": 16.4},
      {"measurement": "TOXICITY VALUES (MTS) MEAN", "setting": "[2]; 20 uM", "value": 0.040, "unit": "O. D."},
      {"measurement": "Y. CC", "setting": "[2]; 20 uM", "value": 3.2},
      {"measurement": "TOXICITY VALUES (MTS) MEAN", "setting": "[2]; 62.5 uM", "value": 0.020, "unit": "O. D."},
      {"measurement": "Y. CC", "setting": "[2]; 62.5 uM", "value": 1.6},
      {"measurement": "TOXICITY VALUES (MTS) MEAN", "setting": "[2]; 200 uM", "value": 0.028, "unit": "O. D."},
      {"measurement": "Y. CC", "setting": "[2]; 200 uM", "value": 2.2},
      {"measurement": "inhibition of HIV replication", "setting": "[3]", "value": "failed to inhibit"}
    ]}
  ]
}
